Assay results: patent US6004960A, “Pyridazinones as inhibitors of cyclooxygenase-2” (Merck Frosst Canada, Inc., priority 1998, dated 1999)

Legend:
COX-2 [1] = target: T1, COX-2 (Homo sapiens, UniProt P35354); test: Human whole blood assay, COX-2 (LPS-induced PGE2 production); assay type: cell-based; parameters: incubation of human whole blood with LPS, which induces COX-2; from tissue; host or cells: fresh human whole blood (volunteers), incubated with LPS; conditions: LPS-induced PGE2, 24 hours at 37° C, read-out: COX-2 (IC50 μM) HWB
T1 sequence (P35354 18-604): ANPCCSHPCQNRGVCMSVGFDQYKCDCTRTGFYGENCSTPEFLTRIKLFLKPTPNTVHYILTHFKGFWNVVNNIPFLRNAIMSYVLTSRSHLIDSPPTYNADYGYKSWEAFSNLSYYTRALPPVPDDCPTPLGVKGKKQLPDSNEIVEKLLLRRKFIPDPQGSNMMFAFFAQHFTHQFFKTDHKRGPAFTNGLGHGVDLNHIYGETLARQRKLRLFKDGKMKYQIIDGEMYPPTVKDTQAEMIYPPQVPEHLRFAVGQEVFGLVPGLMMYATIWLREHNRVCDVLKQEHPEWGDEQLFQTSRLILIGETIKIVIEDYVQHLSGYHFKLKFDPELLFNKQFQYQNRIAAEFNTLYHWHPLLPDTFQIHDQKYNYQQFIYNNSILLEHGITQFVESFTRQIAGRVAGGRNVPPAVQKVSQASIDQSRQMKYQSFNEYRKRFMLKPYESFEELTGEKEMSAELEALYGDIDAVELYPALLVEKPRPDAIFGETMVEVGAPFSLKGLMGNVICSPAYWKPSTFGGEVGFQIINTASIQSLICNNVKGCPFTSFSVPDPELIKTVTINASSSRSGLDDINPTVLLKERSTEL
Source text: As well, platelets in whole blood contain a large amount of the COX-1 enzyme. Immediately following blood clotting, platelets are activated through a thrombin-mediated mechanism. This reaction results in the production of thromboxane B2 (TxB2) via activation of COX-1. Thus, the effect of test compounds on TxB2 levels following blood clotting can be examined and used as an index for COX-1 activity. Therefore, the degree of selectivity by the test compound can be determined by measuring the levels of PGE2 after LPS induction (COX-2) and […] following blood clotting (COX-1) in the same assay.
A. COX-2 (LPS-induced PGE2 production)
Fresh blood is collected in heparinized tubes by venipuncture from both male and female volunteers. The subjects have no apparent inflammatory conditions and have not taken any NSAIDs for at least 7 days prior to blood collection. Plasma is immediately obtained from a 2mL blood aliquot to use as blank (basal levels of PGE2). The remaining blood is incubated with LPS (100 μg/ml final concentration, Sigma Chem, #L-2630 from E. coli; diluted in 0.1% BSA (Phosphate buffered saline) for 5 minutes at room temperature. Five hundred μL aliquots of blood are incubated with either 2μL of vehicle (DMSO) or 2 μL of a test compound at final concentrations varying from 10nM to 30 μM for 24 hours at 37° C. At the end of the incubation, the blood is centrifuged at 12,000×g for 5 minutes to obtain plasma. A 100 μL aliquot of plasma is mixed with 400 μL of methanol for protein precipitation. The supernatant is obtained and is assayed for PGE2 using a radioimmunoassay kit (Amersham, RPA#530) after conversion of PGE2 to its methyl oximate derivative according to the manufacturer's procedure. […]

COX-2 [2] = target: T1, COX-2; test: Whole cell assay for COX-2 using CHO transfected cell line (CHO [hCOX-2]), PGE2; assay type: cell-based; parameters: expressed in transfected cells; host or cells: CHO (Chinese hamster ovary), stably transfected with pCDNAIII vector; CHO [hCOX-2]; conditions: CHO [hCOX-2] cells, 10 μM AA
Method: Chinese hamster ovary (CHO) cell lines which have been stably transfected with an eukaryotic expression vector pCDNAIII containing either the human COX-1 or COX-2 cDNA's are used for the assay. These cell lines are referred to as CHO [hCOX-1] and CHO [hCOX-2], respectively. […] Drugs to be tested are dissolved in DMSO to 66.7-fold the highest test drug concentration. […] Cells (0.3×10^6 cells in 200 p) are preincubated with 3 AIl of the test drug or DMSO vehicle for 15 min at 37° C. […] Cells are then challenged in the presence or absence of drug with the AA/HBSS solution to yield a final concentration of 0.5 μM AA in the CHOhCOX-1] assay and a final concentration of 10 μM AA in the CHO [hCOX-2] assay. […] The samples are centrifuged at 300×g at 4° C. for 10 min, and an aliquot of the clarified supernatant is appropriately diluted for the determination of PGE2 levels using an enzyme-liked immunoassay for PGE2 (Correlate PGE2 enzyme immunoassay kit, Assay Designs, Inc.). Cyclooxygenase activity in the absence of test compounds is determined as the difference in PGE2 levels of cells challenged with arachidonic acid versus the PGE2 levels in cells mock-challenged with ethanol vehicle. Inhibition of PGE2 synthesis by test compounds is calculated as a percentage of the activity in the presence of drug versus the activity in the positive control samples.
In the assay, inhibition is determined by measuring the amount of prostaglandin E2 (PGE2) synthesized in the presence of arachidonic acid, cyclooxygenase-I or cyclooxygenase-2 and a putative inhibitor.

IC50 (COX-2 [1]): 1.5 µM | IC50 (COX-2 [2]): 0.13 µM
SMILES: CS(=O)(=O)c1ccc(-c2cnn(Cc3ccccc3)c(=O)c2-c2cccnc2)cc1 [Example 28, 2-Benzyl-5-(4-methylsulfonyl)phenyl-4-(3-pyridyl)-2H-pyridazin-3-one]
